Tested on: Human ciliated epithelium cells
Protocol: A cytotoxic damage of these cells which would cause a restriction of the mucociliar clearance can be determined by a detectable decrease of the ciliary vibration.
Human ciliated epithelium cells were analysed by an in-vitro method which enables the determination of the ciliary activity or ciliary vibration. The corresponding cells were exposed and incubated with 100 je.1 test substance at a temperature of 37 C. After an incubation period of 5 minutes the ciliary vibration was measured.
By using this in-vitro method a nutriant solution (Dulbeco) as standard, a 0.2% chlorohexidine solution (typical antiseptic agent), conventional polyvidone iodine solutions (Betaisodona) of different concentrations (5.0%, 2.5% and 1.25% PVP-iodine) and a liposomal solution containing 4.5% of PVP-iodine were tested.

## [H]/N=C(\N/C(=N/[H])NCCCCCCNC(=N)NC(=N)Nc1ccc(Cl)cc1)Nc1ccc(Cl)cc1 [chlorohexidine]
  ciliary vibration: decrease of the measured ciliary vibration in comparison to the standard

— patent EP1449521A1, “Use of PVP-iodine liposomes for treatment of atopic dermatitis” (EURO-CELTIQUE S.A., priority 2003, dated 2004)
